One test addresses T1, ALDH1A1 (Homo sapiens, UniProt P00352).
T1 sequence (P00352 1-501): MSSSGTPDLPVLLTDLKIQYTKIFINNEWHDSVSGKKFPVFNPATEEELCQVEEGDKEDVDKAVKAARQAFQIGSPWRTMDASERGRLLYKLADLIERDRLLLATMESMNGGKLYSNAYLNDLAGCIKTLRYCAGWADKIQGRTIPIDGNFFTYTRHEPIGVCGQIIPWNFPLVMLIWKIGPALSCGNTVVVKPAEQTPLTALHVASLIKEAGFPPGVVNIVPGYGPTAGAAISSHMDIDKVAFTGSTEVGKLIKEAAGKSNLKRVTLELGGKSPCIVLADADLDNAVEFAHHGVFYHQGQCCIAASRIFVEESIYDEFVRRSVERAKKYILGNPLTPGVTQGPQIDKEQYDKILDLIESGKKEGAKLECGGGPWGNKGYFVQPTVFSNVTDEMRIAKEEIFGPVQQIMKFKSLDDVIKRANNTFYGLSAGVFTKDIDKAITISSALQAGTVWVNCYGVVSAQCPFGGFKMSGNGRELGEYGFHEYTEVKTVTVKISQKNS
Put plainly: Cell-based enzyme assay, retinoic acid production in ALDH1A1/H1299 cells. In a few lines:
(§1)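 ALDH1A1- or ALDH1A2-stably transfected H1299 cells grown to confluence, then treated 20 h in serum-free RPMI-1640 with 2 μM all-trans-retinal plus varying inhibitor concentrations at 37 °C. Retinoic acid in cells and media quantified; inhibition from RA levels with vs without inhibitor.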

Test [1] deals with T2, ALDH1A2 (Homo sapiens, UniProt O94788).
T2 sequence (O94788 1-518): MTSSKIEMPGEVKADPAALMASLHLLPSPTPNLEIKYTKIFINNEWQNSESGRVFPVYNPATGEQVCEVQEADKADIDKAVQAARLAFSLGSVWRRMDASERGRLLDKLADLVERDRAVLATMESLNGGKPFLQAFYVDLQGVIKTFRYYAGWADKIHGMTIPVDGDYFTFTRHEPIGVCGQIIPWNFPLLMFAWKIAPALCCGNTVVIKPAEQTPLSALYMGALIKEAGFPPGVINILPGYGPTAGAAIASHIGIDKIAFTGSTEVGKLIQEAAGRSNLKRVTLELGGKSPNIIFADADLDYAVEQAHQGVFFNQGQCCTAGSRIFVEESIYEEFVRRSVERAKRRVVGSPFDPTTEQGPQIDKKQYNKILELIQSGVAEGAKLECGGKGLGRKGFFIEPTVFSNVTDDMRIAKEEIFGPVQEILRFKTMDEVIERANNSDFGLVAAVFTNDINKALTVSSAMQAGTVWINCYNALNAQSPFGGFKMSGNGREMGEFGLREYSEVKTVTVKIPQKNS
As to the kind of experiment: Cell-based enzyme assay, retinoic acid production in ALDH1A2/H1299 cells. In a few lines:
as §1

For test [2], the target named is T2, ALDH1A2. As to the kind of experiment: Inhibitor screening using purified enzymes: ALDH1A2 activity, retinoic acid production by HPLC (5 uM initial screen, then IC50). Details: histidine-tag (C); made in house; host or cells: bacterial expression (pET28 vector, IPTG induction). It counts as biochemical. To be noted: purified enzyme. In a few lines:
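Purified His-tagged human enzymes in 10 mM HEPES pH 8.0, 150 mM KCl, 2 mM EDTA with 2 mM NAD, all-trans-retinal substrate; retinoic acid quantified by HPLC. ALDH1A2 initial screen: 1 μg enzyme, 5 μM retinal, 5 μM inhibitor, 15 min, 37° C; IC50 runs: 0.5 μg enzyme, 0.5 μg retinal, 5 min, 37° C.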

Molecules are shown by their SMILES. Some results are limits rather than exact numbers.

From patent publication US11548875B2, “Inhibitor compounds for male contraception” (University of Washington, priority 2018, dated 2023) come the findings set out here.

For the compound `O=C(c1ccccc1)N1CCN(c2ccc([N+](=O)[O-])c(N3CCCC3)c2)CC1` [Compound 339, Phenyl-1-{4-[4-nitro-3-(pyrrolidin-1-yl)phenyl]piperazin-1-yl}methanone], the EC50 (usually the concentration at which the effect is half-maximal) came out at 0.333 µM on ALDH1A1 and 0.293 µM on ALDH1A2 [1]. Moreover, at ALDH1A2 [2], the concentration for half-maximal inhibition (IC50) (in general, the midpoint of a concentration-inhibition curve) amounted to 0.837 µM.

Take `O=C(c1cccc(Cl)c1)N1CCN(c2ccc([N+](=O)[O-])c(N3CCCC3)c2)CC1` [Compound 341, 3-Chlorophenyl-1-{4-[4-nitro-3-(pyrrolidin-1-yl)phenyl]piperazin-1-yl}methanone]: the concentration for a half-maximal effect (EC50) was less than 0.5 µM on ALDH1A1 and 0.505 µM on ALDH1A2 [1]. Further, the concentration for half-maximal inhibition (IC50) against ALDH1A2 [2] was found to be 1.45 µM.

On to `O=C(c1ccc(Cl)cc1)N1CCN(c2ccc([N+](=O)[O-])c(N3CCCC3)c2)CC1` [Compound 342, 4-Chlorophenyl-1-{4-[4-nitro-3-(pyrrolidin-1-yl)phenyl]piperazin-1-yl}methanone], for which the EC50 on ALDH1A1 is 0.468 µM; on ALDH1A2 [1], 0.966 µM. The same compound gave an IC50 against ALDH1A2 [2] of 4.56 µM.

On to `Cn1cccc1C(=O)N1CCN(c2ccc([N+](=O)[O-])c(N3CCCC3)c2)CC1` [Compound 343, [4-(4-Nitro-3-(pyrrolidin-1-yl)phenyl)piperazin-1-yl](1-methyl-1H-pyrrol-2-yl)methanone], for which the 50% effective concentration (EC50) on ALDH1A1 and on ALDH1A2 [1] was less than 0.5 µM throughout. The compound also returned an IC50 against ALDH1A2 [2] of 1.94 µM.

As to `O=C(c1ccc[nH]1)N1CCN(c2ccc([N+](=O)[O-])c(N3CCCC3)c2)CC1` [Compound 344, {4-[4-Nitro-3-(pyrrolidin-1-yl)phenyl]piperazin-1-yl}(1H-pyrrol-2-yl)methanone], the EC50 at ALDH1A1 and at ALDH1A2 [1] was less than 0.5 µM each time. Further, at ALDH1A2 [2], half-maximal inhibition (IC50) required 0.264 µM.

As for `COc1ccc(C(=O)N2CCN(c3ccc([N+](=O)[O-])c(N4CCCC4)c3)CC2)cc1` [Compound 345, 4-Methoxyphenyl-1-{4-[4-nitro-3-(pyrrolidin-1-yl)phenyl]piperazin-1-yl}methanone], the EC50 on ALDH1A1 was less than 0.5 µM; on ALDH1A2 [1] it was 1.19 µM. At ALDH1A2 [2], the midpoint of inhibition, the IC50, lay at 3.99 µM.

For `CN(C)c1ccc(C(=O)N2CCN(c3ccc([N+](=O)[O-])c(N4CCCC4)c3)CC2)cc1` [Compound 346, 4-Dimethylaminophenyl-1-{4-[4-nitro-3-(pyrrolidin-1-yl)phenyl]piperazin-1-yl}methanone], the EC50 was less than 0.5 µM at ALDH1A1 and 1.42 µM on ALDH1A2 [1]. Further, the IC50 against ALDH1A2 [2] amounted to 5.69 µM.

For the compound `CC(=O)n1cccc1C(=O)N1CCN(c2ccc([N+](=O)[O-])c(N3CCCC3)c2)CC1` [Compound 347, {4-[4-Nitro-3-(pyrrolidin-1-yl)phenyl]piperazin-1-yl}(1-acetyl-pyrrol-2yl)methanone], the EC50 is 0.33 µM at ALDH1A1 and 0.35 µM at ALDH1A2 [1]. On ALDH1A2 [2], this compound gave an IC50 of 0.042 µM.

With `Cn1cccc1C(=O)N1CCN(c2ccc(NC(=O)C(Cl)Cl)c(N3CCCC3)c2)CC1` [Compound 367, 1-[4-(4-N-Dichloroacetyl-3-(pyrrolidin-1-yl)phenyl]piperazin-1-yl](1-methyl-1H-pyrrol-2-yl)methanone], the EC50 is 0.244 µM at ALDH1A1 and more than 5 µM at ALDH1A2 [1]. This compound gave a half-maximal inhibitory concentration (IC50) against ALDH1A2 [2] of 2.3 µM.

As to `Cn1cccc1C(=O)N1CCN(c2ccc(NC(=O)CCl)c(N3CCCC3)c2)CC1` [Compound 372, 1-[4-(4-N-Chloroacetyl-3-(pyrrolidin-1-yl)phenyl]piperazin-1-yl](1-methyl-1H-pyrrol-2-yl)methanone], the figures for the EC50 at ALDH1A1 and at ALDH1A2 [1] were 0.069 µM and 0.7 µM, respectively. The same compound showed a half-inhibitory concentration (IC50) against ALDH1A2 [2] of 3.6 µM.

Consider `Cn1cccc1C(=O)N1CCN(c2ccc(-c3ccc([N+](=O)[O-])cc3)c(N3CCCCC3)c2)CC1` [Compound 373], for which the EC50 at ALDH1A1 turned out to be 0.37 µM; at ALDH1A2 [1] it was 0.88 µM. In addition, the midpoint of inhibition against ALDH1A2 [2], the IC50, lay at 2.13 µM.
